Where a name gives a salt, the structure may show the parent alone.
Columns and labels:
Assay type in all cases: cell-based, human
[1] = system: Huh7 (hepatocellular carcinoma) cell line; experiment: CellTiter-Glo luminescent cell viability assay, Huh7; settings: Homo sapiens, Huh-7; for EC50: Huh7 cell line, 72 h incubation, CellTiter-Glo, read-out: EC50, growth inhibition of Huh7; for viability at 4 µM: Huh7, compound at 4 μM; for viability at 4 µM / viability at 10 µM: 72 h; for viability at 10 µM: Huh7, compound at 10 μM
Procedure: (§1) All cell lines were maintained in medium containing 1% penicillin-streptomycin (Dutscher, P06-07100) and 10% Fetal Bovine Serum (Hyclone Dutscher, RZK35922) cultured at 37° C. with 5% CO2. HepG2 (hepatocellular carcinoma), cell line was cultured in Dulbecco's modified Eagle's medium low glucose (Gibco, 21885025), Huh7 (hepatocellular carcinoma), HCT-116 (colorectal carcinoma), PANC-1 (prancreatic carcinoma) and A375 (malignant melanoma) cell lines were cultured in Dulbecco's modified Eagle's medium (Dutscher, L0103). MOLM-14 (acute myeloid leukemia) cell line was maintained in MEM alpha medium (Gibco, 22561-021). 786-0 (renal adenocarcinoma) cell lines were maintained in RPMI 1640 medium (Dutscher, L0498).
(§2) Cell viability was measured using the CellTiter-Glo® luminescent cell viability assay as described by the manufacturer (Promega, Ref G7571) using an Infinite F200Pro luminometer (Tecan). Briefly, for adherent cells, cells were plated onto 96-well plates (white with clear bottom) in 90 μL of media per well and were allowed to grow overnight before the assay. For cells growing in suspension, cells were plated onto 96-well plates 1 h before the assay.
(§3) Compounds were resuspended in H2O or DMSO and added at different concentrations to each well, and cell cultures were incubated for 72 h. Each diluent (H2O or DMSO) were used as a control, and all compounds were tested in a constant percentage of H2O or DMSO. On the day of the reading, plates are equilibrated 30 min at room temperature before the addition of 100 μL of CellTiter-Glo® and luminescence was measured using an Infinite F200Pro (Tecan). % cell viability were expressed as a percentage of the signal obtained for cell cultures treated with diluent. EC50 values were determined as the dose of compound required to reduce luminescent values to 50% of the signal obtained for cell cultures treated with diluent. The experimental data were analyzed using a computer program, Graphpad Prism v5 (GraphPad Software, Inc. La Jolla, Calif.). All points were at least done in duplicate.

[2] = system: 786-O (renal adenocarcinoma) cell line; experiment: CellTiter-Glo luminescent cell viability assay, 786-O; settings: Homo sapiens, 786-0; for EC50: 786-O cell line, 72 h incubation, CellTiter-Glo, read-out: EC50, growth inhibition of 786-O; for viability at 4 µM / viability at 10 µM: 786-O, 72 h; for viability at 4 µM: compound at 4 μM; for viability at 10 µM: compound at 10 μM
Procedure: as §1, §2, §3

[3] = system: A375 (malignant melanoma) cell line; experiment: CellTiter-Glo luminescent cell viability assay, A375; settings: Homo sapiens, A-375; for EC50: A375 cell line, 72 h incubation, CellTiter-Glo, read-out: EC50, growth inhibition of A375; for viability at 4 µM: A375, compound at 4 μM; for viability at 4 µM / viability at 10 µM: 72 h; for viability at 10 µM: A375, compound at 10 μM
Procedure: as §1, §2, §3

[4] = system: HCT-116 (colorectal carcinoma) cell line; experiment: CellTiter-Glo luminescent cell viability assay, HCT-116; settings: Homo sapiens; for EC50: HCT-116 cell line, 72 h incubation, CellTiter-Glo, read-out: EC50, growth inhibition of HCT-116; for viability at 4 µM: HCT-116, compound at 4 μM; for viability at 4 µM / viability at 10 µM: 72 h; for viability at 10 µM: HCT-116, compound at 10 μM
Procedure: as §1, §2, §3

[5] = system: MOLM-14 (acute myeloid leukemia) cell line; experiment: CellTiter-Glo luminescent cell viability assay, MOLM-14; settings: Homo sapiens; for EC50: MOLM-14 cell line, 72 h incubation, CellTiter-Glo, read-out: EC50, growth inhibition of MOLM-14; for viability at 4 µM: MOLM-14, compound at 4 μM; for viability at 4 µM / viability at 10 µM: 72 h; for viability at 10 µM: MOLM-14, compound at 10 μM
Procedure: as §1, §2, §3

[6] = system: HepG2 (hepatocellular carcinoma) cell line; experiment: CellTiter-Glo luminescent cell viability assay, HepG2; settings: Homo sapiens; for EC50: HepG2 cell line, 72 h incubation, CellTiter-Glo, read-out: EC50, growth inhibition of HepG2; for viability at 4 µM / viability at 10 µM: HepG2, HepG, 72 h; for viability at 4 µM: compound at 4 μM; for viability at 10 µM: compound at 10 μM
Procedure: as §1, §2, §3

EC50 [1] | EC50 [2] | EC50 [3] | EC50 [4] | EC50 [5] | EC50 [6] | SMILES | viability at 4 µM [1] | viability at 10 µM [1] | viability at 4 µM [2] | viability at 10 µM [2] | viability at 4 µM [3] | viability at 10 µM [3] | viability at 4 µM [4] | viability at 10 µM [4] | viability at 4 µM [5] | viability at 10 µM [5] | viability at 4 µM [6] | viability at 10 µM [6]
0.5 to 5 µM | 0.5 to 5 µM | 0.5 to 5 µM | 0.5 to 5 µM | 0.5 to 5 µM | 0.5 to 5 µM | Clc1ccc(CNc2cc(N3CC(N4CCCC4)C3)c3ccccc3n2)cc1 [Compound 116, 2-(4-chlorobenzylamino)-4-[3-(pyrrolidin-1-yl)azetidin-1-yl]quinoline hydrochloride] | – | – | – | – | – | – | – | – | – | – | – | –
5 to 10 µM | 0.5 to 5 µM | 5 to 10 µM | 5 to 10 µM | 5 to 10 µM | 5 to 10 µM | Clc1ccc(CNc2cc(N3CC(N4CCOCC4)C3)c3ccccc3n2)cc1 [Compound 118, 2-(4-chlorobenzylamino)-4-[3-(morpholin-4-yl)azetidin-1-yl]quinoline hydrochloride] | – | – | – | – | – | – | – | – | – | – | – | –
– | – | – | – | – | – | N#Cc1c(NCc2ccc(Cl)cc2)nc2ccccc2c1N1CCC(N2CCOCC2)CC1 [Compound 202CN, 2-(4-chlorobenzylamino)-3-cyano-4-[4-(morpholino)piperidin-1-yl]quinoline] | 83.6% | 56.1% | 66.3% | 51.9% | 96.9% | 79.2% | 65.8% | 33.5% | 112% | 64.2% | 80.2% | 51.1%
5 to 10 µM | 5 to 10 µM | 0.5 to 5 µM | 0.5 to 5 µM | 5 to 10 µM | 0.5 to 5 µM | CN(Cc1ccc(Cl)cc1)c1cc(N2CCC(NC(C)(C)C)CC2)c2ccccc2n1 [Compound 212, 2-(N-4-chlorobenzyl-N-methylamino)-4-[4-(tert-butylamino)-piperidin-1-yl]-quinoline, Hydrochloride Salt] | – | – | – | – | – | – | – | – | – | – | – | –
– | – | – | – | – | – | CCN(Cc1ccc(Cl)cc1)c1cc(N2CCC(NC(C)(C)C)CC2)c2ccccc2n1 [Compound 214, 2-(N-4-chlorobenzyl-N-ethylamino)-4-[4-(tert-butylamino)-piperidin-1-yl]-quinoline hydrochloride] | 43% | 0.4% | 6.5% | 0.4% | 0.4% | 0.4% | 0.2% | 0.3% | 26.8% | 16.4% | 0.3% | 0.4%
– | – | – | – | – | – | CC(C)N(Cc1ccc(Cl)cc1)c1cc(N2CCC(NC(C)(C)C)CC2)c2ccccc2n1 [Compound 216, 2-(N-4-chlorobenzyl-N-isopropylamino)-4-[4-(tert-butylamino)-piperidin-1-yl]-quinoline hydrochloride] | 74.1% | 0.5% | 78.4% | 0.5% | 78.1% | 0.4% | 15.5% | 0.3% | 86.7% | 0.5% | 30.4% | 0.4%
– | – | – | – | – | – | CC(C)CN(Cc1ccc(Cl)cc1)c1cc(N2CCC(NC(C)(C)C)CC2)c2ccccc2n1 [Compound 220, 2-(N-4-chlorobenzyl-N-isobutylamino)-4-[4-(tert-butylamino)-piperidin-1-yl]-quinoline] | 81.5% | 0.3% | 74.6% | 0.4% | 76.3% | 0.3% | 60.9% | 0.3% | 78.9% | 52.6% | 79.6% | 31%
5 to 10 µM | 0.5 to 5 µM | 0.5 to 5 µM | 0.5 to 5 µM | 0.5 to 5 µM | 0.5 to 5 µM | CC(C)(C)NC1CCN(c2c(F)c(NCc3ccc(Cl)cc3)nc3ccccc23)CC1 [Compound 348, 2-(4-chlorobenzylamino)-3-fluoro-4-[4-(tert-butylamino)piperidin-1-yl]quinoline Hydrochloride Salt] | – | – | – | – | – | – | – | – | – | – | – | –
5 to 10 µM | 0.5 to 5 µM | 0.5 to 5 µM | 0.5 to 5 µM | 5 to 10 µM | 0.5 to 5 µM | Cc1c(NCc2ccc(Cl)cc2)nc2ccccc2c1N1CCC(NC(C)(C)C)CC1 [Compound 350, 2-(4-chlorobenzylamino)-3-methyl-4-[4-(tert-butylamino)piperidin-1-yl]quinoline] | – | – | – | – | – | – | – | – | – | – | – | –
– | – | – | – | – | – | CC(C)(C)NC1CCN(c2c(C#N)c(NCc3ccc(Cl)cc3)nc3ccccc23)CC1 [Compound 352CN, 2-(4-chlorobenzylamino)-3-cyano-4-[4-(tert-butylamino)piperidin-1-yl]quinoline] | 73.2% | 0.6% | 52.4% | 0.5% | 29.1% | 0.5% | 43.9% | 0.5% | 76.9% | 0.6% | 71.2% | 0.6%
0.5 to 5 µM | 0.5 to 5 µM | 0.5 to 5 µM | 0.5 to 5 µM | 0.5 to 5 µM | 5 to 10 µM | COC(=O)c1c(NCc2ccc(Cl)cc2)nc2ccccc2c1N1CCC(NC(C)(C)C)CC1 [Compound 354, methyl 4-(4-(tert-butylamino)piperidin-1-yl)-2-(4-chlorobenzylamino) quinoline-3-carboxylate] | – | – | – | – | – | – | – | – | – | – | – | –
– | – | – | – | – | – | Cc1cc(CNc2nc3ccccc3c(N3CCC(NC(C)(C)C)CC3)c2C#N)ccc1Nc1nccc(-c2cccnc2)n1 [Compound 498CN, 2-[4-(4-(pyridin-3-yl)pyrimidin-2-ylamino)-3-methylbenzylamino]-3-cyano-4-(4-tert-butylaminopiperidin-1-yl)quinoline] | 58.5% | 0.2% | 0.2% | 0.1% | 0.2% | 0.1% | 0.2% | 0.1% | 0.3% | 0.2% | 0.2% | 0.1%
5 to 10 µM | 5 to 10 µM | 5 to 10 µM | 0.5 to 5 µM | 5 to 10 µM | 5 to 10 µM | Cc1ccnc(Nc2ccc(Nc3nc4ccccc4c(N4CCC(NC(C)(C)C)CC4)c3C#N)cc2C)n1 [Compound 500CN, 2-[4-(4-methyl-2-pyrimidinamino)-3-methyl-phenylamino]-3-cyano-4-(4-tert-butylaminopiperidin-1-yl)-quinoline] | – | – | – | – | – | – | – | – | – | – | – | –
– | 0.5 to 5 µM | 0.5 to 5 µM | 0.5 to 5 µM | 0.5 to 5 µM | 0.5 to 5 µM | Cc1cc(F)cc2c(N3CCC(NC(C)(C)C)CC3)cc(NCc3ccc(Cl)cc3)nc12 [Compound 580, 2-(4-chlorobenzylamino)-4-[4-(tert-butylamino)piperidin-1-yl]-6-fluoro-8-methylquinoline] | – | – | – | – | – | – | – | – | – | – | – | –
0.5 to 5 µM | – | – | – | – | – | O=C(C1CCN(c2cc(NCc3ccc(Cl)cc3)nc3ccccc23)CC1)N1CCCC1 [Compound 1648, 2-(4-chlorobenzylamino)-4-[4-(pyrrolidine-1-carbonyl)piperidin-1-yl]quinoline, hydrochloride] | – | – | – | – | – | – | – | – | – | – | – | –
0.5 to 5 µM | 5 to 10 µM | 5 to 10 µM | 5 to 10 µM | – | 0.5 to 5 µM | OC1CCN(c2cc(NCc3ccc(Cl)cc3)nc3ccccc23)CC1 [Compound 2916, 2-(4-chlorobenzylamino)-4-(4-hydroxypiperidin-1-yl)quinoline, hydrochloride] | – | – | – | – | – | – | – | – | – | – | – | –

— patent US10577362B2, “Substituted 2, 4-diamino-quinoline derivatives for use in the treatment of proliferative diseases” (GENOSCIENCE PHARMA, priority 2016, dated 2020)
